According to patent US9187413B2, “Peripherally restricted FAAH inhibitors” (The Regents of the University of California, priority 2010, dated 2015):

Tests used:
Type in all cases: in vivo
[1] = test system: blood-brain barrier transporters; assay: Co-administration of inhibitors of blood-brain barrier transporters with URB937; settings: rats, URB937 25 mg-kg^-1 i.p.
sciatic nerve ligation = assay: Sciatic nerve ligation pain behavior; settings: mice
Description: Surgery. We performed sciatic nerve ligations in male Swiss mice, as previously described for rats^24 with minor modifications^39.
(§1) Behavioral tests. We measured nocifensive responses elicited by i.p. injection of acetic acid in male Swiss and C57B1/6 (wild-type or FAAH-deficient) mice^40, intraplantar injection of carrageenan in male Swiss mice^20, intraplantar injection of formalin in male Sprague-Dawley rats^41, and sciatic nerve ligation in male Swiss mice^39.
Surgeries All surgeries were conducted under aseptical conditions. Implantation of cannulae for intracerebroventricular (i.c.v.) drug administration. SD rats were anesthesized using a mixture of ketamine (70 mg-kg^−1, i.p.) and xylazine (9.33 mg-kg^−1, i.p.). They were placed in a stereotaxic frame and stabilized by ear bars (David Kopf Instruments, Tujunga, Calif., USA) with the incisor bar set 2.4 mm below the horizontal plane. A 22-gauge stainless-steel guide cannula was implanted into the right lateral cerebral ventricle 7 days prior to experiments. Coordinates for implantation (−0.9 mm antero/posterior and −1.5 mm medio/lateral relative to bregma, and 3.8 mm below the surface of the skull) were determined using the Paxinos and Watson rat brain atlas^45. Guide cannulae were anchored to the skull with 3 stainless-steel screws and dental cement, and were kept patent until injection by insertion of a dummy stylet. […]
Behavioral tests Acetic acid-induced writhing was measured in Swiss mice or C57B1/6 mice (wild-type and FAAH-deficient), as described^40 with minor modifications. […] Abdominal stretches (extension of body and hind limbs) were counted for 20 min, starting 5 min after acetic acid injection. […] Behavior was scored by an observer blinded to the treatment conditions. Formalin-induced nociception was assessed in Sprague-Dawley rats, as described^41. […]

[2] = test system: formalin-induced nociception; assay: Formalin-induced pain behavior; settings: rats, 1 mg-kg^-1, i.p.
Procedure: as §1
Behavioral tests Acetic acid-induced writhing was measured in Swiss mice or C57B1/6 mice (wild-type and FAAH-deficient), as described^40 with minor modifications. Briefly, the mice were acclimated to the experimental room for 2 h. Each animal was injected with acetic acid (150 μL, 0.6% in saline) and placed into a glass cylinder. Abdominal stretches (extension of body and hind limbs) were counted for 20 min, starting 5 min after acetic acid injection. […] Behavior was scored by an observer blinded to the treatment conditions. Formalin-induced nociception was assessed in Sprague-Dawley rats, as described^41. […] Immediately after formalin injection, the rats were returned to the observation container and nocifensive behavior was recorded for 60 min with a video camera. Recordings were analyzed by observers blinded to treatment conditions. Nocifensive behavior was measured continuously for 60 min^41. […] Each 5-min bin was analyzed for time spent (1) lifting and (2) licking or biting the injected paw. […]

[3] = single dose 1 mg-kg^-1, i.p., 2 h before testing, one week after surgery, operated paws

NC(=O)c1cccc(-c2cc(OC(=O)NC3CCCCC3)ccc2O)c1 [Compound 1b, cyclohexylcarbamic acid 3′-carbamoyl-6-hydroxybiphenyl-3-yl ester]
access of URB937 to the brain with Ko-143 ([1]; co-administration of BCRP inhibitor Ko-143): dose-dependent increase
access of URB937 to the brain with verapamil or probenecid ([1]; co-administration of verapamil or probenecid): no such effect
antinociceptive effect of repeated injections after sciatic nerve ligation (sciatic nerve ligation; 1 mg-kg^-1, i.p., once daily for 4 days, starting 3 days after ligation): undistinguishable from that caused by single drug dosing
mechanical hyperalgesia and mechanical allodynia after sciatic nerve ligation (sciatic nerve ligation; [3]): suppressed mechanical hyperalgesia and mechanical allodynia
thermal hyperalgesia after sciatic nerve ligation (sciatic nerve ligation; [3]): attenuated thermal hyperalgesia
area under the curve of formalin-induced pain behavior [2]: decreased the area under the curve
